Results taken from patent US11224633B2, “Kit for treating sepsis and/or any systemic (SIRS) or damaging cellular hyperinflammation” (priority 2015, dated 2022).

Assays:
[1] = in vivo; cited from earlier work
[2] = system: male IOPS Han Ico Wistar rats, septic shock by LPS Salmonella typhimurium
[3] = venous blood at euthanasia H 6h30, individual rats, selenite alone = group 2 perfusion
[4] = venous blood gases at euthanasia H 6h30, individual rats, selenite alone = group 2 perfusion

Row | SMILES | NOAEL No Adverse Effect Level determined in nutrition, per kg [1] [μg/kg per day] | ScvO2 or SaO2 ([2]; blood at euthanasia H 6h30, individual rats, selenite alone = group 2 perfusion) | Creat ([2]; creatinine at H 6h30, individual rats, selenite alone = group 2 perfusion) | Gly ([2]; glycemia at H 6h30, individual rats, selenite alone = group 2 perfusion) | survival of animals ([2]; group 4: control B2 then Na2SeO3 alone in 3 flash injections every 10 min, LPS 50 mg/kg) | Lactate level ([2]; individual rats, LPS 50 mg/kg, sample at H 6h30, selenite alone = group 2, 0.3 mg/kg Se perfused over 30 min, Sel-P over 30 min, combination = Sel-P then 3 flash injections of selenite 0.1 mg/kg) [mmol/L] | CO3H— [2, 3] | Venous lactate [2, 3] [mmol/L] | PCO2 [2, 4] [mmHg] | PaO2 [2, 4] [mmHg] | pH [2, 4]
1 | [Se] [selenium] | 11 | – | – | – | – | – | – | – | – | – | –
2 | O=[Se](O)O [sodium selenite] | – | 8.9 | 156 | 0.27 | do not survive | 8.75 | 19.6 | 8.75 | 97 | 16 | 6.906
